Source: US20200178527A1, “Method for Promoting Growth and Preservation Quality of Agaricus Bisporus” (Nanjing University of Finance & Economics, priority 2018, published 2020)

Experiments:
[1] = tested on: Agaricus bisporus; test: Growth of Agaricus bisporus after spraying MeJA solution at mushroom bud stage; format: in vivo; conditions: for Diameter of Pileus / Diameter of Stipe / Thickness of Pileus / Weight: 30 mL/m^2 spray
Description: Experiment of promoting the growth and preservation quality of Agaricus bisporus (1) An ethanol-water solvent with an ethanol concentration (by volume fraction) of 2% was prepared, and then the methyl jasmonate (MeJA) was dissolved in the ethanol-water solvent to prepare MeJA solutions at concentrations respectively of 10, 50, 100, and 200 μmol/L.
(2) The aforementioned MeJA solutions were each used as an inducer and poured into an automatic spraying device, and were each uniformly sprayed onto the surface of Agaricus bisporus when it was grown to the mushroom bud stage, where the spraying dose of 30 mL/m^2 was used as the treatment group. At the same time, the treatments with water and a 2% ethanol solution were as a blank group and a control group, respectively. The subsequent culturing conditions were 17° C. and a humidity of 90%.
(3) Photographing and sampling are performed every 24 h during the treatment. After sampling, the weight (m) of a single mushroom was weighed and recorded, and the diameter of pileus (a), the diameter of stipe (b) and the thickness of pileus (c) were measured with a microcalliper and recorded to calculate the average values, and the results were shown in Table 1.

[2] = tested on: Agaricus bisporus; test: Post-harvest storage (preservation quality) of Agaricus bisporus at 4° C., relative humidity 90-95%; format: in vivo
Description: Experiment of promoting the growth and preservation quality of Agaricus bisporus (1) An ethanol-water solvent with an ethanol concentration (by volume fraction) of 2% was prepared, and then the methyl jasmonate (MeJA) was dissolved in the ethanol-water solvent to prepare MeJA solutions at concentrations respectively of 10, 50, 100, and 200 μmol/L. (2) The aforementioned MeJA solutions were each used as an inducer and poured into an automatic spraying device, and were each uniformly sprayed onto the surface of Agaricus bisporus when it was grown to the mushroom bud stage, where the spraying dose of 30 mL/m^2 was used as the treatment group. At the same time, the treatments with water and a 2% ethanol solution were as a blank group and a control group, respectively. The subsequent culturing conditions were 17° C. and a humidity of 90%. The Agaricus bisporus was stored under conditions of 4° C. and a relative humidity of 90-95% after harvested, so as to observe its appearance and quality, and the results were as shown in FIG. 2.

[3] = 10 μM MeJA, day 1 after treatment
[4] = 10 μM MeJA, day 2 after treatment
[5] = 50 μM MeJA, day 1 after treatment
[6] = 50 μM MeJA, day 2 after treatment
[7] = 100 μM MeJA, day 1 after treatment
[8] = 100 μM MeJA, day 2 after treatment
[9] = 200 μM MeJA, day 1 after treatment
[10] = 200 μM MeJA, day 2 after treatment
[11] = methyl jasmonate solution of 10-200 μmol/l sprayed at mushroom bud stage

CC/C=C\CC1C(=O)CCC1CC(=O)OC (stereo not drawn) [MeJA, methyl jasmonate]
Diameter of Pileus [1, 3]: 20.21 ± 0.67 mm | Diameter of Stipe [1, 3]: 12.60 ± 0.91 mm | Thickness of Pileus [1, 3]: 12.07 ± 0.48 mm | Weight [1, 3]: 3.83 ± 0.01 g | Diameter of Pileus [1, 4]: 37.04 ± 0.47 mm | Diameter of Stipe [1, 4]: 18.17 ± 0.60 mm | Thickness of Pileus [1, 4]: 21.49 ± 0.50 mm | Weight [1, 4]: 16.27 ± 0.27 g | Diameter of Pileus [1, 5]: 24.29 ± 0.75 mm | Diameter of Stipe [1, 5]: 13.91 ± 0.66 mm | Thickness of Pileus [1, 5]: 14.80 ± 0.49 mm | Weight [1, 5]: 6.81 ± 0.09 g | Diameter of Pileus [1, 6]: 39.01 ± 0.67 mm | Diameter of Stipe [1, 6]: 18.76 ± 0.38 mm | Thickness of Pileus [1, 6]: 22.29 ± 0.21 mm | Weight [1, 6]: 20.34 ± 0.20 g | Diameter of Pileus [1, 7]: 20.52 ± 0.33 mm | Diameter of Stipe [1, 7]: 14.14 ± 0.35 mm | Thickness of Pileus [1, 7]: 12.28 ± 0.32 mm | Weight [1, 7]: 3.69 ± 0.06 g | Diameter of Pileus [1, 8]: 31.97 ± 0.78 mm | Diameter of Stipe [1, 8]: 16.30 ± 0.82 mm | Thickness of Pileus [1, 8]: 18.73 ± 0.82 mm | Weight [1, 8]: 11.18 ± 0.10 g | Diameter of Pileus [1, 9]: 20.79 ± 0.57 mm | Diameter of Stipe [1, 9]: 13.56 ± 0.83 mm | Thickness of Pileus [1, 9]: 12.70 ± 0.19 mm | Weight [1, 9]: 3.48 ± 0.14 g | Diameter of Pileus [1, 10]: 30.71 ± 0.69 mm | Diameter of Stipe [1, 10]: 17.94 ± 0.39 mm | Thickness of Pileus [1, 10]: 17.5 ± 0.48 mm | Weight [1, 10]: 10.10 ± 0.14 g | effect on growth of Agaricus bisporus ([1]; 10-100 μmol/L, compared with blank group and ethanol group (FIG. 1, Table 1)): significant effect of promoting the growth | improvement of yield [1, 11]: 20%-25% | preserving effect on Agaricus bisporus ([2]; 10-200 μmol/L, compared with blank group and ethanol group, storage at 4° C., RH 90-95% (FIG. 2)): significant preserving effect | extension of post-harvest storage time [2, 11]: 2 to 4 days
